In patent US11851449B2, “Heterocyclic amide compounds having an RORvt inhibitory action” (TAKEDA PHARMACEUTICAL COMPANY LIMITED, priority 2013, dated 2023):
Read-outs that look alike come from different tables or passages of the source.

How the values were obtained:
RORγt [1] = target: T1, RORγt (Homo sapiens, UniProt P51449); assay: RORγt binding test (TR-FRET, fluorescent-labeled cholesterol); conditions: read-out: binding inhibitory rate (%) of fluorescent-labeled cholesterol to RORγt at test compound 1 μM
T1 sequence (P51449 1-497 isoform P51449-2): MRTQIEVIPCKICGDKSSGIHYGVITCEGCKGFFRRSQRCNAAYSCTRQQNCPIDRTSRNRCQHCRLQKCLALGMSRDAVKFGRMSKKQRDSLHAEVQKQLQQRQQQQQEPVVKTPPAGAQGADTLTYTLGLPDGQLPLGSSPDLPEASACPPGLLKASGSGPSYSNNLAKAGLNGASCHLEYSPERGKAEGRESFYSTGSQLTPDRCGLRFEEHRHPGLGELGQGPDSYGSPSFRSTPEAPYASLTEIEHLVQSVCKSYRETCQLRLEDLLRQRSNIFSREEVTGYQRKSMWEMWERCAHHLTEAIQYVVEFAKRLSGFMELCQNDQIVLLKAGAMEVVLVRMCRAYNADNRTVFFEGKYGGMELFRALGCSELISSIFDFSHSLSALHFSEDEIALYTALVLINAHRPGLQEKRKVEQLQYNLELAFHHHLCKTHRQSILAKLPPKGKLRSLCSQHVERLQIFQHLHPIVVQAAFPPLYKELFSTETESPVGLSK
In short: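 His-tagged RORγt and BODIPY-cholesterol were incubated with compound for 20 min at room temperature in Tris-HCl pH 7.5, 100 mM NaCl, 1 mM DTT and 0.1% BSA. Terbium anti-His antibody was then added for a further 20 min.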

RORγt [2] = target: T1, RORγt; assay: Cofactor recruitment test (Alpha Screen, biotinylated SRC-1 peptide); type: biochemical; conditions: read-out: signal value inhibitory rate (%) at test compound 1 μM
Experimental: Cofactor Recruitment Test
Cofactor recruitment test was performed by Alpha Screen (Histidine Detection Kit, PerkinElmer) method. First, a test compound was diluted with an assay buffer (50 mM Tris-HCl (pH 7.5), 50 mM KCl, 1 mM DTT, 0.1% BSA) and added to a 384 well plate by 5 μL. […] The mixture was stood in a dark place for 1 hr, and the signal value was measured by Envision (PerkinElmer).

RORγt [3] = target: T1, RORγt; assay: Jurkat reporter test (human IL-17 ROR response element luciferase reporter); type: cell-based; conditions: read-out: luminescence level inhibitory rate (%) at test compound 3 μM
In short: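 Jurkat cells were electroporated (1350 V, 10 ms, 3 pulses) with reporter constructs, then cultured overnight with compound in RPMI containing 10% lipid-reduced FCS, 10 mM HEPES pH 7.5 and 5 μM lovastatin. Luciferase was quantified by Bright-Glo luminescence after 10 min at room temperature.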

[4] = test compound 3 μM, Jurkat cells

| inhibition at 3 µM (RORγt [3]; [4]) | Structure (SMILES) | inhibition at 1 µM (RORγt [1]) | inhibition at 1 µM (RORγt [2]) | inhibition at 3 µM (RORγt [3]; Jurkat) |
| --- | --- | --- | --- | --- |
| – | COCc1ccc(C(NC(=O)C2CNC(=O)C2)C(=O)Nc2ccc([Si](C)(C)C)c(F)c2)cc1 (stereo not drawn) [Example 32, N-(2-((3-fluoro-4-(trimethylsilyl)phenyl)amino)-1-(4-(methoxymethyl)phenyl)-2-oxoethyl)-5-oxopyrrolidine-3-carboxamide] | 95.2% | 95.6% | 99.1% |
| – | COCc1ccc(C(NC(=O)Cc2nnc(C)o2)C(=O)Nc2ccc([Si](C)(C)C)c(F)c2)cc1 (stereo not drawn) [Example 35, N-(3-fluoro-4-(trimethylsilyl)phenyl)-2-(4-(methoxymethyl)phenyl)-2-(((5-methyl-1,3,4-oxadiazol-2-yl)acetyl)amino)acetamide] | 103% | 96.6% | 101% |
| – | COc1ccc(C(C(=O)Nc2cc(F)c([Si](C)(C)C)cc2F)N(C)C(=O)c2cc(O)no2)cc1 (stereo not drawn) [Example 21, N-(2-((2,5-difluoro-4-(trimethylsilyl)phenyl)amino)-1-(4-methoxyphenyl)-2-oxoethyl)-3-hydroxy-N-methyl-1,2-oxazole-5-carboxamide] | 101% | 93.1% | 98.3% |
| 93.4% | CC(C)(C)c1ccc(NC(=O)[C@H](NC(=O)C2CNC(=O)O2)C2CCC(F)(F)CC2)cc1F (stereo partly drawn) [Example 8, N-((1R)-2-((4-tert-butyl-3-fluorophenyl)amino)-1-(4,4-difluorocyclohexyl)-2-oxoethyl)-2-oxo-1,3-oxazolidine-5-carboxamide] | 102% | 49.1% | – |
| – | COCc1ccc([C@@H](NC(=O)CCC(F)F)C(=O)Nc2ccc([Si](C)(C)C)c(F)c2)cc1 [Example 92, 4,4-difluoro-N-((1R)-2-((3-fluoro-4-(trimethylsilyl)phenyl)amino)-1-(4-(methoxymethyl)phenyl)-2-oxoethyl)butanamide] | 102% | 92.8% | 98.8% |
| – | COCc1ccc(C(C(=O)Nc2ccc([Si](C)(C)C)c(F)c2)N(C)C(=O)c2cc(O)no2)cc1 (stereo not drawn) [Example 31, N-(2-((3-fluoro-4-(trimethylsilyl)phenyl)amino)-1-(4-(methoxymethyl)phenyl)-2-oxoethyl)-3-hydroxy-N-methyl-1,2-oxazole-5-carboxamide] | 99.5% | 98.3% | 99.5% |
| – | COCc1ccc([C@@H](NC(=O)C2CCN(C(C)=O)CC2)C(=O)Nc2ccc([Si](C)(C)C)c(F)c2)cc1 [Example 87, 1-acetyl-N-((1R)-2-((3-fluoro-4-(trimethylsilyl)phenyl)amino)-1-(4-(methoxymethyl)phenyl)-2-oxoethyl)piperidine-4-carboxamide] | 102% | 83.9% | 98.2% |
| – | C[Si](C)(C)c1ccc(NC(=O)C(NC(=O)[C@@H]2CNC(=O)C2)C2CCC(F)(F)CC2)cc1F (stereo partly drawn) [Example 5, (3S)—N-(1-(4,4-difluorocyclohexyl)-2-((3-fluoro-4-(trimethylsilyl)phenyl)amino)-2-oxoethyl)-5-oxopyrrolidine-3-carboxamide] | 100% | 84.8% | 98% |
| 97.3% | COCc1ccc([C@@H](NC(=O)C2CNC(=O)C2)C(=O)Nc2ccc(CC(C)(C)C)c(F)c2)cc1 (stereo in doubt) [Example 115, (3S)-N-((1R)-2-((4-(2,2-dimethylpropyl)-3-fluorophenyl)amino)-1-(4-(methoxymethyl)phenyl)-2-oxoethyl)-5-oxopyrrolidine-3-carboxamide] | 102% | 71.6% | – |
| – | COCc1ccc([C@@H](NC(=O)[C@@H]2CNC(=O)C2)C(=O)Nc2cc(F)c([Si](C)(C)C)c(F)c2)cc1 [Example 52, (3S)—N-((1R)-2-((3,5-difluoro-4-(trimethylsilyl)phenyl)amino)-1-(4-(methoxymethyl)phenyl)-2-oxoethyl)-5-oxopyrrolidine-3-carboxamide] | 102% | 98.7% | 100% |
| – | COc1ccc(C(NC(=O)Cc2cc(C)no2)C(=O)Nc2ccc([Si](C)(C)C)cc2)cc1 (stereo not drawn) [Example 18, 2-(4-methoxyphenyl)-2-(((3-methyl-1,2-oxazol-5-yl)acetyl)amino)-N-(4-(trimethylsilyl)phenyl)acetamide] | 101% | 60.3% | 90.9% |
| – | COCc1ccc([C@@H](NC(=O)N2CC(O)C2)C(=O)Nc2ccc([Si](C)(C)C)c(F)c2)cc1 [Example 69, N-((1R)-2-((3-fluoro-4-(trimethylsilyl)phenyl)amino)-1-(4-(methoxymethyl)phenyl)-2-oxoethyl)-3-hydroxyazetidine-1-carboxamide] | 103% | 96.8% | 98.4% |
| 97.8% | COCc1ccc([C@@H](NC(=O)[C@H]2CNC(=O)C2)C(=O)Nc2ccc(C(C)(C)C)c(F)c2)cc1 [Example 102, (3R)—N-((1R)-2-((4-tert-butyl-3-fluorophenyl)amino)-1-(4-(methoxymethyl)phenyl)-2-oxoethyl)-5-oxopyrrolidine-3-carboxamide] | 100% | 83.8% | – |
| – | COc1ccc(C(NC(=O)N2CCC(O)C2)C(=O)Nc2ccc([Si](C)(C)C)c(F)c2)cc1 (stereo not drawn) [Example 29, N-(2-((3-fluoro-4-(trimethylsilyl)phenyl)amino)-1-(4-methoxyphenyl)-2-oxoethyl)-3-hydroxypyrrolidine-1-carboxamide] | 101% | 92.3% | 99.2% |
| – | COCc1ccc([C@@H](NC(=O)Cn2nc(C)ccc2=O)C(=O)Nc2cc(F)c([Si](C)(C)C)c(F)c2)cc1 [Example 61, (2R)—N-(3,5-difluoro-4-(trimethylsilyl)phenyl)-2-(4-(methoxymethyl)phenyl)-2-(((3-methyl-6-oxopyridazin-1(6H)-yl)acetyl)amino)acetamide] | 102% | 97% | 100% |
| – | COCc1ccc([C@@H](NC(=O)[C@H]2CNC(=O)C2)C(=O)Nc2cc(F)c([Si](C)(C)C)c(F)c2)cc1 [Example 68, (3R)—N-((1R)-2-((3,5-difluoro-4-(trimethylsilyl)phenyl)amino)-1-(4-(methoxymethyl)phenyl)-2-oxoethyl)-5-oxopyrrolidine-3-carboxamide] | 101% | 96.2% | 98.7% |
| – | COCc1ccc([C@@H](NC(=O)N2CC[C@H](F)C2)C(=O)Nc2ccc([Si](C)(C)C)c(F)c2)cc1 [Example 96, (3S)-3-fluoro-N-((1R)-2-((3-fluoro-4-(trimethylsilyl)phenyl)amino)-1-(4-(methoxymethyl)phenyl)-2-oxoethyl)pyrrolidine-1-carboxamide] | 98.6% | 91.2% | 99.5% |
| – | Cc1nnc(CC(=O)NC(C(=O)Nc2cc(F)c([Si](C)(C)C)c(F)c2)C2CCOCC2)o1 (stereo not drawn) [Example 2, N-(3,5-difluoro-4-(trimethylsilyl)phenyl)-2-(((5-methyl-1,3,4-oxadiazol-2-yl)acetyl)amino)-2-(tetrahydro-2H-pyran-4-yl)acetamide] | 102% | 78% | 98.1% |
| – | COCc1ccc([C@@H](NC(=O)Cn2ccc(=O)cn2)C(=O)Nc2ccc([Si](C)(C)C)c(F)c2)cc1 [Example 63, (2R)—N-(3-fluoro-4-(trimethylsilyl)phenyl)-2-(4-(methoxymethyl)phenyl)-2-(((4-oxopyridazin-1(4H)-yl)acetyl)amino)acetamide] | 103% | 95.1% | 99.7% |
| – | CN(C(=O)c1cc(O)no1)C(C(=O)Nc1cc(F)c([Si](C)(C)C)c(F)c1)C1CCOCC1 (stereo not drawn) [Example 6, N-(2-((3,5-difluoro-4-(trimethylsilyl)phenyl)amino)-2-oxo-1-(tetrahydro-2H-pyran-4-yl)ethyl)-3-hydroxy-N-methyl-1,2-oxazole-5-carboxamide] | 102% | 99.4% | 101% |
| – | COCc1ccc([C@@H](NC(=O)Cc2nnc(C)o2)C(=O)Nc2cc(F)c([Si](C)(C)C)c(F)c2)cc1 [Example 74, (2R)—N-(3,5-difluoro-4-(trimethylsilyl)phenyl)-2-(4-(methoxymethyl)phenyl)-2-(((5-methyl-1,3,4-oxadiazol-2-yl)acetyl)amino)acetamide] | 101% | 97.6% | 99.4% |
